Experimental data taken from US7074789B2, “Kinase inhibitors” (Amgen Inc., priority 1999, dated 2006).

Columns and labels:
Assay type in all cases: biochemical
EPHB4 = molecular target: T1, EPHB4 (Homo sapiens, UniProt P54760); test: Kinase inhibition assay (33P transfer), EPHB4; conditions: read-out: EPHB4-1
T1 construct: Kinases are expressed as either kinase domains or full length constructs; made in house
T1 sequence (P54760 16-987): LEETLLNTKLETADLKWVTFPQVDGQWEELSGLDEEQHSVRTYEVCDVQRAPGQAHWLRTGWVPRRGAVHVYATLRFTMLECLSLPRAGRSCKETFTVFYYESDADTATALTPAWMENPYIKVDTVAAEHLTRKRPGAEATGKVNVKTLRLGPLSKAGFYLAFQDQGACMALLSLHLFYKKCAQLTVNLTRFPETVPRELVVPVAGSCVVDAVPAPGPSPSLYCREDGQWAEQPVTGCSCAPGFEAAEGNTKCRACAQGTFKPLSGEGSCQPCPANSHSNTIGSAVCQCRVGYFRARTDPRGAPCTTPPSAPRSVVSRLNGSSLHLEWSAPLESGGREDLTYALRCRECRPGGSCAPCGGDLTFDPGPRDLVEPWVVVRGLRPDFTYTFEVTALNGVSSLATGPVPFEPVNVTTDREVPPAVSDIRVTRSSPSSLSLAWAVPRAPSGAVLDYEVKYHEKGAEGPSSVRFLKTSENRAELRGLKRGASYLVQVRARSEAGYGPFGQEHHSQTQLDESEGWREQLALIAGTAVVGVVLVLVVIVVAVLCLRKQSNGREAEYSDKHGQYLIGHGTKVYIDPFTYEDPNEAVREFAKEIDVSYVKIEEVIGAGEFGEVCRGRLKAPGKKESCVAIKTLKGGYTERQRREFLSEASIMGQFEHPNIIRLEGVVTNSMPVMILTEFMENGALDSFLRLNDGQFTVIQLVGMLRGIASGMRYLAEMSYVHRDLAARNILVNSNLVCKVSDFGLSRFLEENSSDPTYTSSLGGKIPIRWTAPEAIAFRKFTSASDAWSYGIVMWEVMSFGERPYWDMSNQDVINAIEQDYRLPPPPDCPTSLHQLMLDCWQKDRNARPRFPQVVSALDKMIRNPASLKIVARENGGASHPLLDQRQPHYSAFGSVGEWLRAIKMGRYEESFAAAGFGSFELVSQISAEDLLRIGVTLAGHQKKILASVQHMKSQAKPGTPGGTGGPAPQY

PDGFRB = molecular target: T2, PDGFRB (Homo sapiens, UniProt P09619); test: Kinase inhibition assay (33P transfer), PDGFRB; conditions: read-out: PDGFRB-1
T2 construct: Kinases are expressed as either kinase domains or full length constructs; made in house

Flt-1 = molecular target: T3, Flt-1 (Homo sapiens, UniProt P17948); test: Kinase inhibition assay (33P transfer), Flt-1
T3 construct: Kinases are expressed as either kinase domains or full length constructs; made in house
Outline: (§1)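 Activity read as 33P incorporation from ATP into poly(Glu,Tyr) 4:1 or poly(Arg,Ser) 3:1 substrate bound to microtiter plates, measured by scintillation after acid washing. Enzymes were affinity-purified GST or polyHis fusions (kinase domain or full length) from E. coli or baculovirus; IC50 = 50% reduction in labelled phosphate.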

c-Met = molecular target: T4, c-Met (Homo sapiens, UniProt P08581); test: Kinase inhibition assay (33P transfer), c-Met; conditions: Table 2, kinase inhibition class; read-out: Met-1
T4 construct: Kinases are expressed as either kinase domains or full length constructs; made in house
Outline: as §1

Tek = molecular target: T5, Tek (Homo sapiens, UniProt Q02763); test: Kinase inhibition assay (33P transfer), Tek; conditions: read-out: Tek-1
T5 construct: Kinases are expressed as either kinase domains or full length constructs; made in house
Outline: as §1

ErbB4 = molecular target: T6, ErbB4 (Homo sapiens, UniProt Q15303); test: Kinase inhibition assay (33P transfer), ErbB4; conditions: read-out: ErbB4-1
T6 construct: Kinases are expressed as either kinase domains or full length constructs; made in house

IGFR-1 = molecular target: T7, IGFR-1 (Homo sapiens, UniProt P08069); test: Kinase inhibition assay (33P transfer), IGFR-1; conditions: Table 2, kinase inhibition class
T7 construct: Kinases are expressed as either kinase domains or full length constructs; made in house

Itk = molecular target: T8, Itk (Homo sapiens, UniProt Q08881); test: Kinase inhibition assay (33P transfer), Itk; conditions: Table 3; read-out: Itk-1
T8 construct: Kinases are expressed as either kinase domains or full length constructs; made in house
T8 sequence (Q08881 1-620): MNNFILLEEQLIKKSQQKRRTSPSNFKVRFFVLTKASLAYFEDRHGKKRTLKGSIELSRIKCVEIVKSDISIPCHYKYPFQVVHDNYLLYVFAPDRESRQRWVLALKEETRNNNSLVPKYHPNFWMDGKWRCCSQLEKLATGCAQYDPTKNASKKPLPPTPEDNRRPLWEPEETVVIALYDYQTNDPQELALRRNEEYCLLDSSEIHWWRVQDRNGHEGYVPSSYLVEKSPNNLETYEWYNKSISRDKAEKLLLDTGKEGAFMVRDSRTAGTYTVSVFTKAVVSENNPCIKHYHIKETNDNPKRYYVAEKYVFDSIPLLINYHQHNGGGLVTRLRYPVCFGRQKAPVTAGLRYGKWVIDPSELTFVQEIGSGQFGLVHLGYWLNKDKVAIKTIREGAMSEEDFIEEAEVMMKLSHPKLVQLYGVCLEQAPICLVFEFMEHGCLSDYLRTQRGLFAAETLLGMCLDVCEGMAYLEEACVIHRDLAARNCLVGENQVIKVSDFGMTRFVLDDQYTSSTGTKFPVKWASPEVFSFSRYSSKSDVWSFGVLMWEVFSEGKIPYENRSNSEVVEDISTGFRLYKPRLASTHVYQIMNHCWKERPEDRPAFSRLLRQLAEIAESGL
Outline: as §1

FGFR1 = molecular target: T9, FGFR1 (Homo sapiens, UniProt P11362); test: Kinase inhibition assay (33P transfer), FGFR1; conditions: read-out: FGFR1-1
T9 construct: Kinases are expressed as either kinase domains or full length constructs; made in house
T9 sequence (P11362 22-822, species assumed): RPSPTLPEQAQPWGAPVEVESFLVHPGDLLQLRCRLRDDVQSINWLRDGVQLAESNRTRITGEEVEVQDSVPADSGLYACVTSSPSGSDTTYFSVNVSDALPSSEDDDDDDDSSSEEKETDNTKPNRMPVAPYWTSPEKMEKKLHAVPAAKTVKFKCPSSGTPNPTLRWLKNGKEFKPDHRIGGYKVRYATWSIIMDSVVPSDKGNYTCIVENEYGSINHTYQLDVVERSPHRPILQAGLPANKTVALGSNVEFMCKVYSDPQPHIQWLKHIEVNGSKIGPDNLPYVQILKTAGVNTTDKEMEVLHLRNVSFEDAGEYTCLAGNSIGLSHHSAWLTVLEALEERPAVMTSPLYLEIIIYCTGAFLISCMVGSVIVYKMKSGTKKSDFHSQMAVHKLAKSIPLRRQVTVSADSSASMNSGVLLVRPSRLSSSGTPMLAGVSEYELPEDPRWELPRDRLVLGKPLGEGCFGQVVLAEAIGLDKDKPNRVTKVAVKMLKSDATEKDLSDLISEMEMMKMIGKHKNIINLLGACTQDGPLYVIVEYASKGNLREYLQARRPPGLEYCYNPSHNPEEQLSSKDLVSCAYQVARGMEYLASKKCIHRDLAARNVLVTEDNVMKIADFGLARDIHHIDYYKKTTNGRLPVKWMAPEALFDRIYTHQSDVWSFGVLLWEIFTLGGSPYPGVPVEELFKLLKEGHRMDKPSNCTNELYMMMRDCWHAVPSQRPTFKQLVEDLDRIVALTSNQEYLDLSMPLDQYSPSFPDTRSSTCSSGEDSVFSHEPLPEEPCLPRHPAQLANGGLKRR

T3 sequence (P17948 27-1338, species assumed): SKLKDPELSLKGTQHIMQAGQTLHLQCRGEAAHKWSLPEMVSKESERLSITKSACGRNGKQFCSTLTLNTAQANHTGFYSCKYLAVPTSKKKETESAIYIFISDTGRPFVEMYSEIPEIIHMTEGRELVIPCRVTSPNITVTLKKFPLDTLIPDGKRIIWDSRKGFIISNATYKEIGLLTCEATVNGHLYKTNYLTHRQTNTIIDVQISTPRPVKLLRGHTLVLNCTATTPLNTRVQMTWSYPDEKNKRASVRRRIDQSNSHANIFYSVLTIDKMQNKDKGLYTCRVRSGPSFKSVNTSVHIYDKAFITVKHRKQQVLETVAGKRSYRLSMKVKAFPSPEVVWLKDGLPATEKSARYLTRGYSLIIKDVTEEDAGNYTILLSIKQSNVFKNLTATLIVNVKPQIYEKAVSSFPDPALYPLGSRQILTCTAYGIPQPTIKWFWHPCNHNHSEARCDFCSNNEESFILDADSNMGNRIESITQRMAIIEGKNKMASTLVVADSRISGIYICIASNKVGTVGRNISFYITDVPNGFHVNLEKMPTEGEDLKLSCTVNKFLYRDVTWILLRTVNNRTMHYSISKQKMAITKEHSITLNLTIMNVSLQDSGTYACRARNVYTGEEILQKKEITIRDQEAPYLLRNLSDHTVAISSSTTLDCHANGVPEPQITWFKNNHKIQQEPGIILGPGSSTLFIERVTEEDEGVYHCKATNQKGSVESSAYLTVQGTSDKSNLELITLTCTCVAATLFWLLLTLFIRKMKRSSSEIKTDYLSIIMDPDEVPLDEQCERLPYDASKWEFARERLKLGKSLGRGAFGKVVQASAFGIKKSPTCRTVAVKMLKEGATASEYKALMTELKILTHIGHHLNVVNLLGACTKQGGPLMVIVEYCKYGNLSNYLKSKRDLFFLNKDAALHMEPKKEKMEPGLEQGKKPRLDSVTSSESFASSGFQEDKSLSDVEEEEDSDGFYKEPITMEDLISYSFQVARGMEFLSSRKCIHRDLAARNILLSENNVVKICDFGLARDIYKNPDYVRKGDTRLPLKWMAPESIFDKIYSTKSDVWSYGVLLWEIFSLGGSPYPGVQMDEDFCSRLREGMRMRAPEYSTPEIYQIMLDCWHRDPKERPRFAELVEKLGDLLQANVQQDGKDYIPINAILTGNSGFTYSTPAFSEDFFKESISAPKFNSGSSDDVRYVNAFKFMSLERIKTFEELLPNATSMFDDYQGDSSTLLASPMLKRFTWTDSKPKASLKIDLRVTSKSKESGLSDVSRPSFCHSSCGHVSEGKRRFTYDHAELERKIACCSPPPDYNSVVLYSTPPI
T7 sequence (P08069 31-1367): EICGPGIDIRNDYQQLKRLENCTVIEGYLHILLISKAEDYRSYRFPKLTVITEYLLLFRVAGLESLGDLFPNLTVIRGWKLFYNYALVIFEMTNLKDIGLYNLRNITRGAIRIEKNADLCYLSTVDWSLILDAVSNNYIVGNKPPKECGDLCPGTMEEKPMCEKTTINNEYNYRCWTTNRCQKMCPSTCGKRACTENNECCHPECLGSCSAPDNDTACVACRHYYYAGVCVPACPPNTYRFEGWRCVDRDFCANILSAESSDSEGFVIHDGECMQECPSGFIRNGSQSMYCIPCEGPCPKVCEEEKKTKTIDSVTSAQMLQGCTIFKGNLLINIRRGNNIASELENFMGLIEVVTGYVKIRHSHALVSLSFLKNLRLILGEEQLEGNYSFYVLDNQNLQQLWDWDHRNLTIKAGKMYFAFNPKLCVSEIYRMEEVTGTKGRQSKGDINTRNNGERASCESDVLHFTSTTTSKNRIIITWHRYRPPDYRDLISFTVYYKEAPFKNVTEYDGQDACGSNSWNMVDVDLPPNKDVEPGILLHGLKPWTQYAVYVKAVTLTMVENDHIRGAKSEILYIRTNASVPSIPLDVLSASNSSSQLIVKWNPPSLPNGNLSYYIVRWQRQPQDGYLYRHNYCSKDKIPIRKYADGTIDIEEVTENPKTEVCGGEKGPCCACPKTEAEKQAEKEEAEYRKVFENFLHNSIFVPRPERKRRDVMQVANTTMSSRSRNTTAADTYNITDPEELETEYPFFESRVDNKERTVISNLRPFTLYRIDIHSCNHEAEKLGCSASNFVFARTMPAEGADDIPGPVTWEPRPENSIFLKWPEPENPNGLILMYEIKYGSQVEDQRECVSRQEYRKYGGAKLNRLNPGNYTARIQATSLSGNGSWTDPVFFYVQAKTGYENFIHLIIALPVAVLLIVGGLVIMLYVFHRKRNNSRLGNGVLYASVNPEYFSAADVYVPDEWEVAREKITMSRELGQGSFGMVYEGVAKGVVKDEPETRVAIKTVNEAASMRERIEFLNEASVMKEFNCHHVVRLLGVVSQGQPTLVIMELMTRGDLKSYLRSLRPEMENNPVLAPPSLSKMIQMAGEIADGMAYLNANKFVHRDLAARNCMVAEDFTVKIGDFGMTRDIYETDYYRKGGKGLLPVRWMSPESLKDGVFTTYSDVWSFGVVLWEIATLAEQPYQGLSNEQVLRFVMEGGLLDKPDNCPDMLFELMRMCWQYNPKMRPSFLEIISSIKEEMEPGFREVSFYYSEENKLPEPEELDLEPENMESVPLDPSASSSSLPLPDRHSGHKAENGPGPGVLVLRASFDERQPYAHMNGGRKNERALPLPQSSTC
T4 sequence (P08581 25-1390): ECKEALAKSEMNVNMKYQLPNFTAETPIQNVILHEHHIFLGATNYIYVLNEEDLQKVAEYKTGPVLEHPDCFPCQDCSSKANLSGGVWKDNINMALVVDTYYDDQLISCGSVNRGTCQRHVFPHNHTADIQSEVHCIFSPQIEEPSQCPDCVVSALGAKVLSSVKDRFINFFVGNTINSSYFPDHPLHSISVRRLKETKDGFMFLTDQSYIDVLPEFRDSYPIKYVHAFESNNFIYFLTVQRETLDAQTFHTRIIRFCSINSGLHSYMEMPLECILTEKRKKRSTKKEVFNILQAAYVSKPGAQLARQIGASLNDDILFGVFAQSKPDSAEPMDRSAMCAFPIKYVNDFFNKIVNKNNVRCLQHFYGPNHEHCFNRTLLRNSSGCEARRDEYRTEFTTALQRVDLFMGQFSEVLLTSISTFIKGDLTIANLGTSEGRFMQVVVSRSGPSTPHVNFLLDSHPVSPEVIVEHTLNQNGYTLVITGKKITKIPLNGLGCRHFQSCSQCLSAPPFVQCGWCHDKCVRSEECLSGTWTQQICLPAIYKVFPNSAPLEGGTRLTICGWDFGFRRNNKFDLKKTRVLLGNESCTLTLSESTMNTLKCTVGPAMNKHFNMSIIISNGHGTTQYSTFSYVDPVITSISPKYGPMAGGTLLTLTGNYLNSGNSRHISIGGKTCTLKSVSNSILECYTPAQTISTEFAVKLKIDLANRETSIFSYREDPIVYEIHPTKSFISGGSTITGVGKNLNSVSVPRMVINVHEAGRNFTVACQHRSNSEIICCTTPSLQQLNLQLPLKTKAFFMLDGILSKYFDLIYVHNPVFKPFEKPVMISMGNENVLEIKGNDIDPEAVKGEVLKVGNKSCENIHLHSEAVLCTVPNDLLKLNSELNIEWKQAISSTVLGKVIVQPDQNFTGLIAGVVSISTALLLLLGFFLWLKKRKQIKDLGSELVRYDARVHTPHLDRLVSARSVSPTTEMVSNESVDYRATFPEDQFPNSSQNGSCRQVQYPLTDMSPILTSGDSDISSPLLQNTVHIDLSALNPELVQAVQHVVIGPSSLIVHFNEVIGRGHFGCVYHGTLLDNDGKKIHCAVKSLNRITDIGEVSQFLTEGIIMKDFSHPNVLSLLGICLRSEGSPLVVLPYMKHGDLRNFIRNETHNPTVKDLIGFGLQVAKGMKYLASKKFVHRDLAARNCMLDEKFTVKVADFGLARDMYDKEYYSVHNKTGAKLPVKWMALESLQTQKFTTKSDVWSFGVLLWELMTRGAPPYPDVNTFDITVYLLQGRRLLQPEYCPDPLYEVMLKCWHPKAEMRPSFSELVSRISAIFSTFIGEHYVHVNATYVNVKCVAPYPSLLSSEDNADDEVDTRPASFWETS

IC50 (EPHB4) [µM] | IC50 (PDGFRB) [µM] | IC50 (Flt-1) [µM] | IC50 (c-Met) [µM] | IC50 (Tek) [µM] | IC50 (ErbB4) [µM] | IC50 (IGFR-1) [µM] | IC50 (Itk) [µM] | IC50 (FGFR1) [µM] | Compound
> 11.9 | < 1.06 | 1.06 to 6.34 | 1.06 to 6.34 | 9.25 to 11.9 | > 11.9 | 1.06 to 6.34 | > 11.9 | > 11.9 | COc1cc(Nc2ncnc(-n3cnc4ccccc43)n2)cc(OC)c1OC [Compound 186]
8.47 to 10.9 | < 0.968 | < 0.968 | > 10.9 | 8.47 to 10.9 |  | > 10.9 | > 10.9 | > 10.9 | COc1ccc(Nc2ncnc(Nc3cc(OC)c(OC)c(OC)c3)n2)cc1OC [Compound 36]
1.01 to 6.04 | 1.01 to 6.04 | < 1.01 | > 11.3 | > 11.3 |  | < 1.01 | 6.04 to 8.81 | 1.01 to 6.04 | COc1cc(Nc2ncnc(Nc3ccc4c(c3)OCO4)n2)cc(OC)c1OC [Compound 252]
> 10.7 | > 10.7 | > 10.7 | 0.951 to 5.71 | > 10.7 | > 10.7 | > 10.7 | > 10.7 | > 10.7 | COc1cc(Nc2ncnc(Nc3nnc(-c4ccccc4)[nH]3)n2)cc(OC)c1OC [Compound 311]
> 12.7 | < 1.13 | < 1.13 | > 12.7 | > 12.7 | 1.13 to 6.79 | 6.79 to 9.9 | 9.9 to 12.7 | 1.13 to 6.79 | COc1ccc(Nc2ncnc(Nc3ccc(C)c(O)c3)n2)cc1OC [Compound 119]
> 10.5 | 8.15 to 10.5 | 5.59 to 8.15 | 8.15 to 10.5 | > 10.5 | 5.59 to 8.15 | > 10.5 | > 10.5 | 0.931 to 5.59 | COc1cc(Nc2ncnc(Nc3ccc(OCc4ccccc4)cc3)n2)cc(OC)c1 [Compound 156]
> 13 | > 13 | 1.16 to 6.95 | > 13 | > 13 |  | > 13 | > 13 | > 13 | COc1cc(Nc2ncnc(N3CCCCC3)n2)cc(OC)c1OC [Compound 207]
1 to 6.01 | 1 to 6.01 | 6.01 to 8.76 | < 1 | > 11.3 | < 1 | < 1 | 6.01 to 8.76 | 1 to 6.01 | COc1cc(Nc2ncnc(Nc3cc(C(C)(C)C)[nH]n3)n2)cc(OC)c1OC [Compound 313]
> 11 | 0.982 to 5.89 | 0.982 to 5.89 | > 11 | > 11 | 5.89 to 8.59 | 5.89 to 8.59 | > 11 | 0.982 to 5.89 | COc1cc(Nc2ncnc(Nc3nc4ccccc4n3C)n2)cc(OC)c1OC [Compound 938]
> 11.3 | 1 to 6.01 | 1 to 6.01 | 1 to 6.01 | 1 to 6.01 | 1 to 6.01 | > 11.3 | 1 to 6.01 | 6.01 to 8.76 | COc1cc(Nc2ncnc(N3CCCC4CCCCC43)n2)cc(OC)c1OC (stereo not drawn) [Compound 314]

Compound | IC50 (EPHB4) [µM] | IC50 (PDGFRB) [µM] | IC50 (Flt-1) [µM] | IC50 (c-Met) [µM] | IC50 (Tek) [µM] | IC50 (ErbB4) [µM] | IC50 (IGFR-1) [µM] | IC50 (Itk) [µM] | IC50 (FGFR1) [µM]
COc1cc(Nc2ncnc(-n3c(Nc4ccccc4)nc4ccccc43)n2)cc(OC)c1OC [Compound 336] | > 9.58 | < 0.852 | < 0.852 | > 9.58 | > 9.58 | > 9.58 | > 9.58 | > 9.58 | < 0.852
